Assay results: patent US12409112B2, “Pressurized nanoemulsion” (Biofrontera Bioscience GmbH, priority 2023, dated 2025)

Experiments:
[1] = ALA content over storage time in BF200 with PX=2%; format: physicochemical; details: BF200 with PX=2% and 3% ALA
Procedure: Nanoemulsion formulations BF200 PX=2% glass and BF200 PX=2% foam were prepared as described in Example 5. The nanoemulsion formulations were stored at 25° C. and 2-8° C. The content of ALA was determined at 0 (starting point) and various time points during the 36 months storage period.

[2] = room temperature; cited from earlier work
[3] = TC content over storage time in BF220 with PX=4%; format: physicochemical; details: BF220 with PX=4% and 0.1% TC
Procedure: Nanoemulsion formulations BF220 TC=0.1% glass and BF220 TC=0.1% foam were prepared as described in Example 6. The nanoemulsion formulations were stored at 2-8° C. The content of TC was determined at 0 (starting point) and various time points during the 36 months storage period.

[4] = cited from earlier work

Structure (SMILES) | Preservation of API content, pressurized cans versus conventional storing units (glass vials) ([1]; 25° C. and 2-8° C., all conditions) | ALA content ([1]; after 36 months storage at 2-25° C.) | Stability in aqueous formulations [2] | Preservation of API content, pressurized cans versus conventional storing units (glass vials) ([3]; 2-8° C.) | TC content ([3]; after 36 months storage at 2-8° C.) | octanol-water partition coefficient (log P) [4]
NCC(=O)CCC(=O)O [ALA, 5-aminolevulinic acid] | better | at least 90% | – | – | – | –
C=CC[C@@H]1/C=C(\C)C[C@H](C)C[C@H](OC)[C@H]2O[C@@](O)(C(=O)C(=O)N3CCCC[C@H]3C(=O)O[C@H](/C(C)=C/[C@@H]3CC[C@@H](O)[C@H](OC)C3)[C@H](C)[C@@H](O)CC1=O)[C@H](C)C[C@@H]2OC [TC, Tacrolimus] | – | – | approx. 90 days | better | at least 90% | > 3
